In article PMC11558673, “Exploring LCST- and UCST-like Behavior of Branched Molecules Bearing Repeat Units of Elastin-like Peptides as Side Components” (Biomacromolecules, 2024):

Experiments:
Assay type in all cases: physicochemical
[1] = Turbidity measurement (LCST/UCST-like behavior, Tt); conditions: for Tt for the LCST-like behavior: Tt = temperature at half the maximum turbidity, mean ± standard error, at least three measurements; for Temperature-responsive behavior in turbidity measurement: heating to 90 °C and cooling to 5 °C at 1 °C/min, turbidity at 400 nm
Description: Temperature-responsive properties (LCST/UCST-like behavior and its reversibility) were investigated by using a JASCO V-660 spectral photometer (JASCO, Tokyo, Japan). Each peptide was dissolved in phosphate buffer containing NaCl (pH 7.4, 27.4 mM Na2HPO4, 17.8 mM NaH2PO4, 1 M NaCl). NaCl in this concentration is used as an additive to trigger an LCST-like behavior for the inverse transition cycling (a method to purify a protein exploiting the LCST-like behavior of ELPs).[9] The turbidity at 400 nm of each branched ELP solution was traced while increasing or decreasing the temperature at a rate of 0.5 °C/min, except for samples at 0.5 mM, which were traced at 1 °C/min for heating–cooling cycle measurements. For the samples at 0.5 mM, after heating to 90 °C or cooling to 5 °C, the samples were vortexed to eliminate any possible concentration gradients caused by peptide precipitation and kept at 90 or 5 °C for 30 min before starting the subsequent cooling or heating, respectively. The transition temperature (Tt) for LCST was defined as a temperature at which the turbidity of the solution reaches half the maximum value while increasing the temperature. Measurements were performed at least three times.

[2] = CD measurement (aggregation observed in sample); conditions: 0.1 mg/mL in filtered phosphate buffer pH 7.4 without NaCl; 10 to 90 °C
Description: CD measurements were carried out using a J-725 spectropolarimeter (JASCO) for [α-E(F1)]5-F1 and [γ-E(F1)]5-F1 in a cuvette with a path length of 1.0 mm. Each peptide was dissolved in filtered phosphate buffer (pH 7.4, 27.4 mM Na2HPO4, and 17.8 mM NaH2PO4) at a concentration of 0.1 mg/mL. […] Spectra were obtained from 190 to 260 nm at temperatures ranging from 10 to 90 °C with 20 °C intervals. Each measurement was performed after 3 min of equilibration at the target temperature. After subtracting the background spectra, Savitzky–Golay filters were applied to smooth all spectra.

ThT fluorescence assay = conditions: peptide 1 mM; 50 μM ThT; phosphate buffer pH 7.4 with 1 M NaCl; excitation 446 nm, emission 483 nm
Description: A ThT fluorescence assay was conducted using an FP-8500 fluorescence spectrometer (JASCO Co.). The phosphate buffer solutions (pH 7.4, 27.4 mM Na2HPO4, 17.8 mM NaH2PO4) of [α-E(F1)]5-F1 (1 or 0.5 mM) containing 1 M NaCl and 50 μM ThT were prepared. The temperature change rates were the same as those in the turbidity measurements. Using an excitation wavelength of 446 nm, the ThT fluorescence intensities at 483 nm upon temperature changes or over time were recorded.

[3] = DLS measurement of particle size distribution; conditions: peptide 0.5 mM, filtered phosphate buffer pH 7.4 with 1 M NaCl
Description: The particle size distribution of branched ELPs was analyzed in filtered phosphate buffer (pH 7.4, 27.4 mM Na2HPO4, 17.8 mM NaH2PO4) containing 1 M NaCl using DLS with a Zetasizer Nano ZS (Malvern Instruments, Worcestershire, U.K.) DLS analysis was performed at temperatures ranging from 15 to 55 °C with 10 °C intervals for [α-E(F1)]n-F1 and [γ-E(F1)]n-F1 under conditions where the ELPs have Tt values around 30 °C for LCST-like behavior (n = 4, 2.5 mM; n = 5, 1 mM; n = 6, 0.5 mM). Additionally, a solution of [α-E(F1)]5-F1 at 0.5 mM was analyzed at 20, 60, and 90 °C. The measurement duration was selected automatically. The parameter data set “protein” (data set: refractive index, 1.450; absorption, 0.001) was used as the material parameter, and the parameter data set “water” (data set: refractive index, 1.330; viscosity, 0.8872) was chosen as the dispersant parameter. Attenuation was selected automatically.

[4] = peptide 1.5 mM, turbidity at 400 nm on heating 0.5 °C/min, phosphate buffer pH 7.4 with 1 M NaCl
[5] = peptide 2.5 mM, turbidity at 400 nm on heating 0.5 °C/min, phosphate buffer pH 7.4 with 1 M NaCl
[6] = peptide 4 mM, turbidity at 400 nm on heating 0.5 °C/min, phosphate buffer pH 7.4 (27.4 mM Na2HPO4, 17.8 mM NaH2PO4) with 1 M NaCl
[7] = peptide 0.5 mM, turbidity at 400 nm on heating (1 °C/min for heating-cooling cycle measurements), phosphate buffer pH 7.4 with 1 M NaCl
[8] = peptide 1 mM, turbidity at 400 nm on heating 0.5 °C/min, phosphate buffer pH 7.4 with 1 M NaCl
[9] = peptide 0.5 mM, phosphate buffer pH 7.4 with 1 M NaCl

SMILES	Tt for the LCST-like behavior [1, 4]	Tt for the LCST-like behavior [1, 5]	Tt for the LCST-like behavior [1, 6]	Tt for the LCST-like behavior [1, 7]	Tt for the LCST-like behavior [1, 8]	Temperature-responsive behavior in turbidity measurement [1, 9]	Aggregation behavior in CD sample [2]	Solubility at 90 °C ([1]; peptide 1 mM and 2.5 mM at 90 °C, phosphate buffer pH 7.4 with 1 M NaCl, images of measurement cell)	ThT fluorescence intensity upon heating (ThT fluorescence assay)	Hydrodynamic diameter at 20, 60 and 90 °C [3]
CC(C)[C@H](NC(=O)CNC(=O)[C@@H]1CCCN1C(=O)[C@H](Cc1ccccc1)NC(=O)CC[C@H](NC(=O)[C@H](CCC(=O)N[C@@H](Cc1ccccc1)C(=O)N1CCC[C@H]1C(=O)NCC(=O)N[C@H](C(=O)NCC(N)=O)C(C)C)NC(=O)[C@@H](N)CCC(=O)N[C@@H](Cc1ccccc1)C(=O)N1CCC[C@H]1C(=O)NCC(=O)N[C@H](C(=O)NCC(N)=O)C(C)C)C(=O)N[C@@H](CCC(=O)N[C@@H](Cc1ccccc1)C(=O)N1CCC[C@H]1C(=O)NCC(=O)N[C@H](C(=O)NCC(N)=O)C(C)C)C(=O)N[C@@H](Cc1ccccc1)C(=O)N1CCC[C@H]1C(=O)NCC(=O)N[C@H](C(=O)NCC(N)=O)C(C)C)C(=O)NCC(N)=O [[α-E(F1)]4-F1]	47.04 ± 0.81 °C	29.98 ± 1.82 °C	21.12 ± 1.68 °C							
CC(C)[C@H](NC(=O)CNC(=O)[C@@H]1CCCN1C(=O)[C@H](Cc1ccccc1)NC(=O)CC[C@H](NC(=O)CC[C@H](NC(=O)CC[C@H](NC(=O)CC[C@H](N)C(=O)N[C@@H](Cc1ccccc1)C(=O)N1CCC[C@H]1C(=O)NCC(=O)N[C@H](C(=O)NCC(N)=O)C(C)C)C(=O)N[C@@H](Cc1ccccc1)C(=O)N1CCC[C@H]1C(=O)NCC(=O)N[C@H](C(=O)NCC(N)=O)C(C)C)C(=O)N[C@@H](Cc1ccccc1)C(=O)N1CCC[C@H]1C(=O)NCC(=O)N[C@H](C(=O)NCC(N)=O)C(C)C)C(=O)N[C@@H](Cc1ccccc1)C(=O)N1CCC[C@H]1C(=O)NCC(=O)N[C@H](C(=O)NCC(N)=O)C(C)C)C(=O)NCC(N)=O [[γ-E(F1)]4-F1]	46.52 ± 0.67 °C	30.25 ± 0.23 °C	20.75 ± 0.47 °C							
CC(C)[C@H](NC(=O)CNC(=O)[C@@H]1CCCN1C(=O)[C@H](Cc1ccccc1)NC(=O)CC[C@H](NC(=O)[C@H](CCC(=O)N[C@@H](Cc1ccccc1)C(=O)N1CCC[C@H]1C(=O)NCC(=O)N[C@H](C(=O)NCC(N)=O)C(C)C)NC(=O)[C@H](CCC(=O)N[C@@H](Cc1ccccc1)C(=O)N1CCC[C@H]1C(=O)NCC(=O)N[C@H](C(=O)NCC(N)=O)C(C)C)NC(=O)[C@@H](N)CCC(=O)N[C@@H](Cc1ccccc1)C(=O)N1CCC[C@H]1C(=O)NCC(=O)N[C@H](C(=O)NCC(N)=O)C(C)C)C(=O)N[C@@H](CCC(=O)N[C@@H](Cc1ccccc1)C(=O)N1CCC[C@H]1C(=O)NCC(=O)N[C@H](C(=O)NCC(N)=O)C(C)C)C(=O)N[C@@H](CCC(=O)N[C@@H](Cc1ccccc1)C(=O)N1CCC[C@H]1C(=O)NCC(=O)N[C@H](C(=O)NCC(N)=O)C(C)C)C(=O)N[C@@H](Cc1ccccc1)C(=O)N1CCC[C@H]1C(=O)NCC(=O)N[C@H](C(=O)NCC(N)=O)C(C)C)C(=O)NCC(N)=O [[α-E(F1)]6-F1]		7.68 ± 0.80 °C		33.80 ± 0.38 °C	19.76 ± 0.97 °C					
CC(C)[C@H](NC(=O)CNC(=O)[C@@H]1CCCN1C(=O)[C@H](Cc1ccccc1)NC(=O)CC[C@H](NC(=O)CC[C@H](NC(=O)CC[C@H](NC(=O)CC[C@H](NC(=O)CC[C@H](N)C(=O)N[C@@H](Cc1ccccc1)C(=O)N1CCC[C@H]1C(=O)NCC(=O)N[C@H](C(=O)NCC(N)=O)C(C)C)C(=O)N[C@@H](Cc1ccccc1)C(=O)N1CCC[C@H]1C(=O)NCC(=O)N[C@H](C(=O)NCC(N)=O)C(C)C)C(=O)N[C@@H](Cc1ccccc1)C(=O)N1CCC[C@H]1C(=O)NCC(=O)N[C@H](C(=O)NCC(N)=O)C(C)C)C(=O)N[C@@H](Cc1ccccc1)C(=O)N1CCC[C@H]1C(=O)NCC(=O)N[C@H](C(=O)NCC(N)=O)C(C)C)C(=O)N[C@@H](Cc1ccccc1)C(=O)N1CCC[C@H]1C(=O)NCC(=O)N[C@H](C(=O)NCC(N)=O)C(C)C)C(=O)NCC(N)=O [[γ-E(F1)]5-F1]		17.38 ± 0.10 °C		61.87 ± 0.60 °C	34.73 ± 0.52 °C	both LCST- and UCST-like behavior	apparent aggregation behavior was not observed			
CC(C)[C@H](NC(=O)CNC(=O)[C@@H]1CCCN1C(=O)[C@H](Cc1ccccc1)NC(=O)CC[C@H](NC(=O)[C@H](CCC(=O)N[C@@H](Cc1ccccc1)C(=O)N1CCC[C@H]1C(=O)NCC(=O)N[C@H](C(=O)NCC(N)=O)C(C)C)NC(=O)[C@H](CCC(=O)N[C@@H](Cc1ccccc1)C(=O)N1CCC[C@H]1C(=O)NCC(=O)N[C@H](C(=O)NCC(N)=O)C(C)C)NC(=O)[C@@H](N)CCC(=O)N[C@@H](Cc1ccccc1)C(=O)N1CCC[C@H]1C(=O)NCC(=O)N[C@H](C(=O)NCC(N)=O)C(C)C)C(=O)N[C@@H](CCC(=O)N[C@@H](Cc1ccccc1)C(=O)N1CCC[C@H]1C(=O)NCC(=O)N[C@H](C(=O)NCC(N)=O)C(C)C)C(=O)N[C@@H](Cc1ccccc1)C(=O)N1CCC[C@H]1C(=O)NCC(=O)N[C@H](C(=O)NCC(N)=O)C(C)C)C(=O)NCC(N)=O [[α-E(F1)]5-F1]		13.86 ± 0.33 °C		56.92 ± 1.28 °C		both LCST- and UCST-like behavior	apparent aggregation behavior was not observed	insoluble	sharp increase in fluorescence intensity around Tt	larger hydrodynamic diameters at 60 °C compared to the ones at 20 or 90 °C
CC(C)[C@H](NC(=O)CNC(=O)[C@@H]1CCCN1C(=O)[C@H](Cc1ccccc1)NC(=O)CC[C@H](NC(=O)CC[C@H](NC(=O)CC[C@H](NC(=O)CC[C@H](NC(=O)CC[C@H](NC(=O)CC[C@H](N)C(=O)N[C@@H](Cc1ccccc1)C(=O)N1CCC[C@H]1C(=O)NCC(=O)N[C@H](C(=O)NCC(N)=O)C(C)C)C(=O)N[C@@H](Cc1ccccc1)C(=O)N1CCC[C@H]1C(=O)NCC(=O)N[C@H](C(=O)NCC(N)=O)C(C)C)C(=O)N[C@@H](Cc1ccccc1)C(=O)N1CCC[C@H]1C(=O)NCC(=O)N[C@H](C(=O)NCC(N)=O)C(C)C)C(=O)N[C@@H](Cc1ccccc1)C(=O)N1CCC[C@H]1C(=O)NCC(=O)N[C@H](C(=O)NCC(N)=O)C(C)C)C(=O)N[C@@H](Cc1ccccc1)C(=O)N1CCC[C@H]1C(=O)NCC(=O)N[C@H](C(=O)NCC(N)=O)C(C)C)C(=O)N[C@@H](Cc1ccccc1)C(=O)N1CCC[C@H]1C(=O)NCC(=O)N[C@H](C(=O)NCC(N)=O)C(C)C)C(=O)NCC(N)=O [[γ-E(F1)]6-F1]		8.63 ± 0.31 °C		34.56 ± 0.48 °C	23.66 ± 0.06 °C					
